Laboratory results reported in patent publication EP4052593B1, “TOBACCO FILLER FOR HEAT-NOT-BURN TOBACCO PRODUCTS, HEAT-NOT-BURN TOBACCO PRODUCT, AND ELECTRICALLY HEATED TOBACCO PRODUCT” (Japan Tobacco Inc., priority 2019, dated 2021).

What was measured:
[1] = Measurement of count median diameter of residual aerosol in dilution with DMS (differential mobility spectrometer); type: physicochemical; conditions: for Count median diameter: Experimental Example 1, DMS, reduced pressure 0.25 bar, primary dilution 25 L/min, secondary dilution 200-fold, weight addition ratio of Table 1; for count median diameter (result in words): Experimental Example 1, DMS
Description: Since the DMS measures an aerosol under reduced pressure (0.25 bar) and a high dilution condition, an aerosol with high volatility is easily vanished and gasified. In the case of an aerosol with relatively low volatility, a particle diameter distribution is obtained in terms of residual aerosol, although the aerosol is reduced by volatilization. In this case, if the diameters of generated aerosol particles are the same, the particle diameter distribution of the residual aerosol varies depending of the level of volatility. In this Example, a peak particle diameter based on the number is considered to indicate the stability under reduced pressure and a high dilution condition and thus is used as the index. A larger count median diameter means that an aerosol is more stably present, and a smaller count median diameter means that an aerosol is more unstable. Under the conditions of this experiment, the primary dilution was performed at 25 L/min, and the secondary dilution was set to 200-fold and performed. Note that a mass peak particle diameter immediately after the generation before dilution and pressure reduction were involved was also separately measured with Spraytec (Model STP5321, Malvern), and, in the types of additives and the range of the amounts of additives added in this Example, there was no difference, and the count median diameters were present at about 200 nm.

[2] = Measurement of solubility in glycerin (GC-FID); type: physicochemical; conditions: Experimental Example 1, excess fatty acid in 2 g glycerin, standing 48 hours
Procedure: The solubility in glycerin is most preferably measured by a method for quantitatively determining a fatty acid dissolved in 2 g of glycerin. Specifically, after an excessive amount of a fatty acid is added to glycerin, the mixture is separated into two layers, for example, by standing at ordinary temperature for 24 hours or more or by centrifugal separation, 100 mg aliquot of glycerin is taken, and transferred and dissolved into 2 mL of methanol, and the amount of fatty acid dissolved in glycerin is quantitatively determined by gas chromatograph-flame ionized detector (GC-FID) or gas chromatograph-mass spectrometer (GC-MS).
If the amount of fatty acid excessively added is large, the separation into two layers becomes difficult, and thus it is necessary to add the fatty acid in a slightly excessive amount.

| SMILES | Count median diameter [1] [nm] | Solubility in glycerin [2] [mg/g] | count median diameter (result in words) [1] |
| --- | --- | --- | --- |
| CCCCCCCC(=O)O [Comparative Example 2, Octanoic acid] | 38.7 | – | – |
| CCCCCCCCCC(=O)O [Comparative Example 3, Decanoic acid] | 50.5 | – | – |
| CCCCCCCCCCCCCC(=O)O [Comparative Example 4, Myristic acid] | 51.6 | 0.14 | – |
| CCCCCCCCCCCCCCCCCCC(=O)O [Comparative Example 5, Nonadecanoic acid] | 74.6 | 0.09 | – |

The next lines start with the values.

| Count median diameter [1] [nm] | Solubility in glycerin [2] [mg/g] | count median diameter (result in words) [1] | SMILES |
| --- | --- | --- | --- |
| – | 0.32 | – | CC/C=C\C/C=C\C/C=C\CCCCCCCC(=O)O [Comparative Example 6, Linolenic acid] |
| 61.9 | 0.14 | – | CCCCC/C=C\C/C=C\CCCCCCCC(=O)O [Comparative Example 7, Linoleic acid] |
| 55.1 | 1.82 | – | CCCCCCCC/C=C\CCCCCCCC(=O)O [Comparative Example 8, Oleic acid] |
| 67.8 | – | – | CCCCCCCCCCCCCCCC(=O)O [Example 1, Palmitic acid] |
| 75.3 | – | large count median diameters | CCCCCCCCCCCCCCCCCC(=O)O [Example 2, Stearic acid] |
| – | – | large count median diameters | CCCCCCCCCCCCCCCC(=O)O [palmitic acid] |
